From BindingDB's records for patent US10479784 (VERTEX PHARMACEUTICALS INCORPORATED, 2019)

Target: Serine/threonine-protein kinase ATR (Homo sapiens, UniProt Q13535)
Test: Inhibition Assay
Protocol: Compounds were screened for their ability to inhibit ATR kinase using a radioactive-phosphate incorporation assay. Assays were carried out in a mixture of 50 mM Tris/HCl (pH 7.5), 10 mM MgCl2 and 1 mM DTT. Final substrate concentrations were […] (3mCi 33P ATP/mmol ATP, Perkin Elmer) and 800 μM target peptide ([…]).Assays were carried out at 25° C. in the presence of 5 nM full-length ATR. An assay stock buffer solution was prepared containing all of the reagents listed above, with the exception of ATP and the test compound of interest. […] The plate was pre-incubated for 10 minutes at 25° C. and the reaction initiated by addition of 15 μL [γ-33P]ATP (final concentration 10 μM).The reaction was stopped after […] by the addition of 30 μL 0.1M phosphoric acid containing 2 mM ATP. A multiscreen phosphocellulose filter 96-well plate (Millipore, Cat no. MAPHN0B50) was pretreated with 100 μL 0.2M phosphoric acid prior to the addition of 45 μL of the stopped assay mixture.

Chain of Serine/threonine-protein kinase ATR (Q13535 whole entry): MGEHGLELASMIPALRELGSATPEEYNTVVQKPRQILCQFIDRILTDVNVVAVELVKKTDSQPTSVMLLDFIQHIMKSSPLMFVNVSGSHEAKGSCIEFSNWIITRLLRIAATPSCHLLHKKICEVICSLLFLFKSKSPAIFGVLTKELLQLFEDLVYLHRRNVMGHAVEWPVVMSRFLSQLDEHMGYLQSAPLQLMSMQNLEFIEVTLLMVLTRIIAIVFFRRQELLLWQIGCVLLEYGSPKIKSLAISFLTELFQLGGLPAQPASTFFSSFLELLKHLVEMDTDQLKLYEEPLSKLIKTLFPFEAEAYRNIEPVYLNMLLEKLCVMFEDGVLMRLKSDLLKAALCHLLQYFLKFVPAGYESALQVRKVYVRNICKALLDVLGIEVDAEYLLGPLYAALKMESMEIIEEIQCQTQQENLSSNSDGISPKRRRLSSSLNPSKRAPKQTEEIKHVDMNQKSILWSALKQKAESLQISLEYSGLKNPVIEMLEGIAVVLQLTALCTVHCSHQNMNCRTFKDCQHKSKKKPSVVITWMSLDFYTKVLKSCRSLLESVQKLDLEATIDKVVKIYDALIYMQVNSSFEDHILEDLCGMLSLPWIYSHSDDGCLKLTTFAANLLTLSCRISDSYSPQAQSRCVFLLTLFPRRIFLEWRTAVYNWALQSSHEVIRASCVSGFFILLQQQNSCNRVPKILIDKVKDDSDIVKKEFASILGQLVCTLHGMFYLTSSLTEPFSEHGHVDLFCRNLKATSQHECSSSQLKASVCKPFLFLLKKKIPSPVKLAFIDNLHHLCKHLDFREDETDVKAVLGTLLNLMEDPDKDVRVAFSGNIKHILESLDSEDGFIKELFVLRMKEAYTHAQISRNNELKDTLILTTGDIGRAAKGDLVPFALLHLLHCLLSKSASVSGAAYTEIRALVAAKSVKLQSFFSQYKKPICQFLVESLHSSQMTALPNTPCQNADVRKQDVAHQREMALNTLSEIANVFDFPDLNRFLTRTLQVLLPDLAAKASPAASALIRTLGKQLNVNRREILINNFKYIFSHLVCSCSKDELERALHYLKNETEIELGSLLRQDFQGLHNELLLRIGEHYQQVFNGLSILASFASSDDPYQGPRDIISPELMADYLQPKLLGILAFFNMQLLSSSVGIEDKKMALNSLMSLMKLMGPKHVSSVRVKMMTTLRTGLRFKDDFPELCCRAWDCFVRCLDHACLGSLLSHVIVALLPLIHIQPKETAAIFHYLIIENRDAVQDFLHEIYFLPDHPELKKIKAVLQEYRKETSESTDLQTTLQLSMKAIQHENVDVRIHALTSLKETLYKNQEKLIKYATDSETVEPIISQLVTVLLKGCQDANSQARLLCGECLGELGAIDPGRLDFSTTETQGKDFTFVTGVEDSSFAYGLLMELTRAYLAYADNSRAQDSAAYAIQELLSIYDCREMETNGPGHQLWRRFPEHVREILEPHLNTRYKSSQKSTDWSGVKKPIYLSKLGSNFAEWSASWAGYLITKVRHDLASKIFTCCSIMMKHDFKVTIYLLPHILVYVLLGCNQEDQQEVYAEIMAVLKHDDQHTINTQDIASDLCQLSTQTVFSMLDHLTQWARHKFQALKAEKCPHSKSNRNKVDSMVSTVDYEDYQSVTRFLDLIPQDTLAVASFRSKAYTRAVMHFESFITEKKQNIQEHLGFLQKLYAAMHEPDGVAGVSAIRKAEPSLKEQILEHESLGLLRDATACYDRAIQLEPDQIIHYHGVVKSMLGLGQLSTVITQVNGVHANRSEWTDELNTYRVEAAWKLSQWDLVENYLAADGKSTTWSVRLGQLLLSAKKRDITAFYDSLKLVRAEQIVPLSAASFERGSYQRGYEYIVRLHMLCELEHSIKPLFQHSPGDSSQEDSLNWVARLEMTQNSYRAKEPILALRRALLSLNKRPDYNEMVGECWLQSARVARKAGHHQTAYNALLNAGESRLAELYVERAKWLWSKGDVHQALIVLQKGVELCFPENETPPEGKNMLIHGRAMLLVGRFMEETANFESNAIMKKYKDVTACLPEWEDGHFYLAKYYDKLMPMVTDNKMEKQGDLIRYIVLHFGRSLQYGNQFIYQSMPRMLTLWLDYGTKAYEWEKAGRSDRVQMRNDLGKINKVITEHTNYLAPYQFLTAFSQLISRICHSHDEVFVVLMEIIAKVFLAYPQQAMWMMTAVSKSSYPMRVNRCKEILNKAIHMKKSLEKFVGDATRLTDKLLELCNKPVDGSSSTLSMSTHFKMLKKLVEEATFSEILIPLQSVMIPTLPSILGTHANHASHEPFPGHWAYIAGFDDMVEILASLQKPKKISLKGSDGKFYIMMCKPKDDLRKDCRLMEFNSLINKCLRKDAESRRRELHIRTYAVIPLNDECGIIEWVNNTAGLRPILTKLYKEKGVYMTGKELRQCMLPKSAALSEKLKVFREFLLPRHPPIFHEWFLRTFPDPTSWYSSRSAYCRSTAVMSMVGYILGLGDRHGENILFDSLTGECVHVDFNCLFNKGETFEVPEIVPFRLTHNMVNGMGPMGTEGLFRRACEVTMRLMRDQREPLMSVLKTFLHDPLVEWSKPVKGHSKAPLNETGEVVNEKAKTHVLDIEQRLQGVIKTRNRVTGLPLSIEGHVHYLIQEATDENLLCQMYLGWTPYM

`CNCc1ccc(C(=N)OC(=N)c2nc(-c3ccc(S(=O)(=O)C(C)C)c(OC(F)(F)F)c3)cnc2N)cc1` [US10479784, Compound IA-290] gave a Ki of less than 10 nM.
In the case of `CNCc1ccc(C(=N)OC(=N)c2nc(-c3ccc([S+]([O-])C(C)CCOC)cc3)cnc2N)c(F)c1` (configuration not stated) [US10479784, Compound IA-332], the Ki is reported as less than 10 nM.
